In general, Ki refers to the equilibrium dissociation constant of an inhibitor or competing ligand from its target. A word on the ED50: it is the dose that gives a 50% effect, or the effect in half of the subjects. By MIC is commonly meant the smallest concentration in the dilution series that meets the test's criterion for growth inhibition.

Results on 4 compounds are retold here after patent US8530491B2, “Antimalarial compounds with flexible side-chains” (Medicines for Malaria Venture (MMV), priority 2007, dated 2013).

Converted amounts (≈) assume the structure as drawn.

The target in data set [1] is T1, Pf DHFR WT (Plasmodium falciparum, UniProt A7UD81).
T1 construct: made in house; host or cells: E. coli BL21(DE3)pLysS
T1 sequence (A7UD81 1-608): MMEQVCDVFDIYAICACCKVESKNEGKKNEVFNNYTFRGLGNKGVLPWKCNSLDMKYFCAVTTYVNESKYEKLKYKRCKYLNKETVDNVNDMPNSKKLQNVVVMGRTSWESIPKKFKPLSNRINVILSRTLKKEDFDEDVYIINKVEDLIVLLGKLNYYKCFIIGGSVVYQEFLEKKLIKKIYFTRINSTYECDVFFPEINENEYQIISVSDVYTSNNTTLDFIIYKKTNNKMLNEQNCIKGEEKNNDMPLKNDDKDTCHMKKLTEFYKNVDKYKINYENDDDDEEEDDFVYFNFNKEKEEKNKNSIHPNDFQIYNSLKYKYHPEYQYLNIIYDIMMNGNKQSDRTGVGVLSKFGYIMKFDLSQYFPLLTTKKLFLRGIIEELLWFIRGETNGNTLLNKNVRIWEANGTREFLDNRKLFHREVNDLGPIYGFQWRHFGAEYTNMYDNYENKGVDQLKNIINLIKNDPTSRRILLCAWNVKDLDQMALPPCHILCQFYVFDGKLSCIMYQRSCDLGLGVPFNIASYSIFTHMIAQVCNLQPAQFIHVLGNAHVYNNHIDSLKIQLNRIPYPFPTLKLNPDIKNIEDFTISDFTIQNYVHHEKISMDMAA
The experiment in a line: Pf DHFR enzyme inhibition (Ki), wild type. The format is biochemical.

The target of data set [2] is T2, Pf DHFR N51I + C59R + S108N + I164L (Plasmodium falciparum, UniProt A7UD81, C59R/I164L/N51I/S108N).
T2 construct: made in house; host or cells: E. coli BL21(DE3)pLysS
T2 sequence (A7UD81 whole entry N51I/C59R/S108N/I164L): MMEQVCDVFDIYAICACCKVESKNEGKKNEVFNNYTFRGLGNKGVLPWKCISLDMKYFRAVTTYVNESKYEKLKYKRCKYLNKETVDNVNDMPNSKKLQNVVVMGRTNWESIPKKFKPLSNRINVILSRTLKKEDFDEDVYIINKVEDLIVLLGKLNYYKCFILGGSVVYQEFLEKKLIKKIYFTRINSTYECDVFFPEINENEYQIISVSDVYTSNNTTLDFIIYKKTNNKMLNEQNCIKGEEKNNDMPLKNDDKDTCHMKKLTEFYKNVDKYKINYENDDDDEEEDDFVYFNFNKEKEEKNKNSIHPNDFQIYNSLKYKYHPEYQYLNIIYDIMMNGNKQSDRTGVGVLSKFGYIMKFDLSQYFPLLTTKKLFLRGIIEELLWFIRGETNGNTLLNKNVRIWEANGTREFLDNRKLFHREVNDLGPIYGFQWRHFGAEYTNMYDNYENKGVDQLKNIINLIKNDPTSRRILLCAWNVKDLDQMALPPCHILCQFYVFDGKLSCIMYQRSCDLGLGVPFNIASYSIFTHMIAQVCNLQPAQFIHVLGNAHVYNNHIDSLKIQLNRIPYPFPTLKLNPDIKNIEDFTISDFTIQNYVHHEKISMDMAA
The experiment in a line: biochemical.

In data set [3] the test system is P. falciparum TM4/8.2 (wild type). Description: In vitro anti-plasmodial activity, [3H]-hypoxanthine incorporation. The format is cell-based, Plasmodium falciparum. As to conditions: Plasmodium falciparum, read-out: IC50-P. falciparum TM4/8.2 (WT), TM4/8.2.
For data set [4], the system named is P. chabaudi ASP. The experiment in a line: Standard 4-day Peters' test against P. chabaudi ASP (pyrimethamine-resistant) in mice. The format is in vivo, Plasmodium chabaudi. Particulars: for ED50: Plasmodium chabaudi, po, read-out: ED50 P. chabaudi ASP; for ED90 P. chabaudi ASP: oral, pyrimethamine-resistant strain. The protocol: (§1) Briefly, 20 gr CD1 male mice (Charles Rivers, UK) were kept in specific pathogen-free conditions and fed ad libitum. For oral administration, compounds were dissolved in standard suspending formula (SSV) [0.5% sodium carboxymethylcellulose, 0.5% benzyl alcohol, 0.4% Tween 80, 0.9% NaCl (all Sigma)] and for intraperitoneal or subcutaneous administration compounds were dissolved in 0.5% w/v hydroxypropylmethylcellulose, 0.4% v/v Tween 80, 0.5% V/v benzyl alcohol in de-ionised water]. Mice were infected intravenously with 4×10^6 infected red cells and treated orally (p.o.) with 0.2 ml of a solution of the test compounds two hours (day 0) and on days 1, 2 and 3 post-infection. Parasitaemia was determined by microscopic examination of Giemsa stained blood films taken on day 4. Microscopic counts of blood films from each mouse were processed using GraphPad Prism 4 (GraphPad Software, Inc., CA, USA) and expressed as percentages of inhibition from the arithmetic mean parasitaemias of each group in relation to the untreated group. Compounds were tested in an initial screening at 30 mg/kg/day against P. chabaudi AS (non-resistant) over the period described and percentages of inhibition calculated in relation to the untreated controls. Compounds giving 80% inhibition or above were then tested in the same model under a range of doses over the period described in order to obtain dose response curves and calculate their ED50 and ED90 values. […] From the ED90 values is clear that a number of compounds have exquisite activity in this model and are also tested in P. chabaudi ASP and P. berghei ANKA.

The subject of data set [5] is P. berghei ANKA. The experiment in a line: Standard 4-day Peters' test against P. berghei ANKA in mice. The format is in vivo, Plasmodium berghei. As to conditions: oral, lethal non-resistant strain; for ED50: Plasmodium berghei. Here is the method:
as §1

Data set [6] has as its target T3, Pf DHFR C59R + S108N (Plasmodium falciparum, UniProt A7UD81, C59R/S108N).
T3 construct: made in house; host or cells: E. coli BL21(DE3)pLysS
Description: biochemical.

Data set [7] deals with P. chabaudi AS. Description: Standard 4-day Peters' test against P. chabaudi AS in mice. The format is in vivo, Plasmodium chabaudi. Particulars: for ED50 / ED90: Plasmodium chabaudi, 96 h, oral, 4-day Peters' test; for ED50: 50% reduction in parasitaemia; for ED90: 90% reduction in parasitaemia. The protocol:
as §1

In data set [8] the target is T4, Pf DHFR C59R + S108N + I164L (Plasmodium falciparum, UniProt A7UD81, C59R/I164L/S108N).
T4 construct: made in house; host or cells: E. coli BL21(DE3)pLysS
T4 sequence (A7UD81 whole entry C59R/S108N/I164L): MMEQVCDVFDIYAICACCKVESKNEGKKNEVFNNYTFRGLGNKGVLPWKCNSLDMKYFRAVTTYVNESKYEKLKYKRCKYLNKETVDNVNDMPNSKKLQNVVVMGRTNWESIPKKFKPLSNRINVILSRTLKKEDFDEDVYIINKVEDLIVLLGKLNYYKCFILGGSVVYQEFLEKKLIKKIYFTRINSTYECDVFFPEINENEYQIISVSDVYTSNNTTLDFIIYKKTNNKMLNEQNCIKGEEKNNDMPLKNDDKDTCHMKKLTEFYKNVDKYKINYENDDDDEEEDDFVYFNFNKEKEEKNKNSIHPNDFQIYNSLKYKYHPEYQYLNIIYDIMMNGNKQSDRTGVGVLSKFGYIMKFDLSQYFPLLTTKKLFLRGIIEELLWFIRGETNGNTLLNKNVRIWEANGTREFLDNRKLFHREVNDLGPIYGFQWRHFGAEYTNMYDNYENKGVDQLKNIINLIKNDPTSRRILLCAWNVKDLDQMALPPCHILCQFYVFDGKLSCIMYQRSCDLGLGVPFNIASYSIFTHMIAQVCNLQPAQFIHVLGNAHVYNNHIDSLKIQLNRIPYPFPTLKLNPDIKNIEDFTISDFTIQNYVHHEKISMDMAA
Description: biochemical.

Data set [9] in a line: Oral bioavailability and pharmacokinetics in male Sprague Dawley rats. As to conditions: for Oral BA: i.v. and oral dosing; for Vd: intravenous; for clearance: read-out: i.v. CL(plasma). The format is in vivo. Here is the method:
Rats had free access to water throughout the pre- and post-dose sampling period, and access to food was re-instated 4 hours post-dosing. Test compounds were administered intravenously as a 5 minute constant rate infusion (1.0 mL per rat) and orally by gavage (1.0 mL per rat). The IV formulations were typically buffered aqueous solutions containing a co-solvent if required for solubilization. The oral formulations were prepared as suspensions in hydroxypropylmethyl cellulose or carboxymethyl cellulose, each with the addition of Tween 80 and benzyl alcohol. Samples of arterial blood and total urine were collected up to 24 hours post-dose. Arterial blood was collected directly into borosilicate vials (at 4° C.) containing heparin, a protease inhibitor cocktail, potassium fluoride, and EDTA to minimise the potential for ex vivo degradation of the test compound in blood/plasma samples. Once collected, blood samples were centrifuged, supernatant plasma was removed and stored at −20° C., and plasma concentrations of test compound were determined by LCMS.

Data set [10] addresses T5, Pf DHFR N51I + C59R + S108N (Plasmodium falciparum, UniProt A7UD81, C59R/N51I/S108N).
T5 construct: made in house; host or cells: E. coli BL21(DE3)pLysS
Description: biochemical.

The nature of data set [11]: Cytotoxicity in mammalian cells. The format is cell-based. As to conditions: African green monkey, Vero cells (African green monkey kidney epithelial cells).
The test system of data set [12] is S. aureus. The experiment in a line: Antibacterial activity, minimal inhibitory concentration on agar plates. The format is cell-based. As to conditions: Staphylococcus aureus; complete inhibition of growth on agar plates.
Data set [13] deals with P. chabaudi AS. The experiment in a line: Standard 4-day Peters' test against P. chabaudi AS in mice. The format is in vivo, Plasmodium chabaudi. As to conditions: s.c. administration, mice (Table 1).
For data set [14], the system named is E. coli. Description: Antibacterial activity, minimal inhibitory concentration on agar plates. The format is cell-based. As to conditions: Escherichia coli; complete inhibition of growth on agar plates.
Data set [15] deals with P. falciparum Wild Type. Description: Anti-malarial activity against P. falciparum in vitro, wild type (Table 1). The format is cell-based, Plasmodium falciparum. Particulars: Plasmodium falciparum.
The test system of data set [16] is P. falciparum Resistant mutant. The experiment in a line: Anti-malarial activity against P. falciparum in vitro, resistant mutant (Table 1). The format is cell-based, Plasmodium falciparum. Particulars: Plasmodium falciparum, read-out: IC50 against P. falciparum in vitro, Resistant mutant.
For data set [17] the following is noted: rat, in vivo.

T5 sequence (A7UD81 whole entry N51I/C59R/S108N): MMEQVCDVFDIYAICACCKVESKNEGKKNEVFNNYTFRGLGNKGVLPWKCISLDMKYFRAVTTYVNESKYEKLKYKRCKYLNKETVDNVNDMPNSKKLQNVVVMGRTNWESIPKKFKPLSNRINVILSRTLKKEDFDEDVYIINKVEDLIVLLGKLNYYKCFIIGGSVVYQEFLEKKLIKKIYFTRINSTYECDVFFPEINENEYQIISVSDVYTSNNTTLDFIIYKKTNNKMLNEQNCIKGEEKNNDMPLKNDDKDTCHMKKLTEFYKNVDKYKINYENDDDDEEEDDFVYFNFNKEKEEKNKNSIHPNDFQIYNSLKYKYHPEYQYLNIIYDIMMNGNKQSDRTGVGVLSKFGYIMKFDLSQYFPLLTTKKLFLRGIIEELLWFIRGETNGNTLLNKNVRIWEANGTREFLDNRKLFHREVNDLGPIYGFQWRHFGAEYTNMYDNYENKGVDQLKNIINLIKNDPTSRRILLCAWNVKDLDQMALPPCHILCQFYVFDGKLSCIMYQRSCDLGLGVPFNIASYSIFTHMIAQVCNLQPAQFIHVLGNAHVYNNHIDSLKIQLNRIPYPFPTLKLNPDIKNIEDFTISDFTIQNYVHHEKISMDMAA
T3 sequence (A7UD81 whole entry C59R/S108N): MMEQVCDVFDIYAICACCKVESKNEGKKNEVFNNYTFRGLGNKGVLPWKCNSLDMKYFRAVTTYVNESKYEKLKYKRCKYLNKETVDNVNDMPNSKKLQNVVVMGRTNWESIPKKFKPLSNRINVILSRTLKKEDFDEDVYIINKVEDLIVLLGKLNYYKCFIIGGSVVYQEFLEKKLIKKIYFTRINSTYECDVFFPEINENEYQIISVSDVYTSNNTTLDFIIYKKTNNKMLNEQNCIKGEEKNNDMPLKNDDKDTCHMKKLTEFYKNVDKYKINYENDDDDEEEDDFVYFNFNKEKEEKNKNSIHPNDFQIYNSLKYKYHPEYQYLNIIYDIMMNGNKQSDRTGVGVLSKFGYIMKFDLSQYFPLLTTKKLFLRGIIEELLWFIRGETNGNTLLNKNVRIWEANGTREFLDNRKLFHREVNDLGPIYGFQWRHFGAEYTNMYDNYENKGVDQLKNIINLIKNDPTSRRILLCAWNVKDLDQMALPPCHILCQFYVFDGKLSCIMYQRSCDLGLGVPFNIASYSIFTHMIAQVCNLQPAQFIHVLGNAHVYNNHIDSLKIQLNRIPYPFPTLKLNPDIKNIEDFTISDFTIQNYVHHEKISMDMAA

As for `CCc1nc(N)nc(N)c1OCCCOc1ccnc2ccccc12` [Compound P113, 2,4-diamino-6-ethyl-5-(3-(quinolin-4-yloxy)propoxy)pyrimidine], the inhibition constant (Ki) worked out at 1.21 ± 0.17 nM in data set [1]; 4.33 ± 0.28 nM in data set [2]; 1.86 ± 0.11 nM in [6]; 3.06 ± 0.21 nM in data set [8]; 1.82 ± 0.17 nM in data set [10]. The IC50 in data set [3] worked out at 4 ± 3 nM; in data set [11], 119 nM. Further, the median effective dose (ED50) in [4] was 0.003 mg/kg; in data set [5], 0.01 mg/kg; in data set [7], 0.006 mg/kg. In addition, in data set [4], the “ED90 P. chabaudi ASP” value came out at 0.01 mg/kg. Besides, the “ED90 P. berghei ANKA” value in data set [5] is 0.03 mg/kg. The same compound had an ED90 in [7] of 0.01 mg/kg. Moreover, in data set [9], the “Oral BA” value is listed as <2.0 % of dose.

On to `CCc1nc(N)nc(N)c1-c1ccc(Cl)cc1` [Pyrimethamine, pyrimethamine, reference compound], for which the minimum inhibitory concentration (MIC) in data set [12] and in [14] was above 50 µM each time. The IC50 in [3] is 58 ± 30 nM; in data set [15], 79 nM; in [16], above 100000 nM. Further, the ED50 in [4] worked out at 1.8 mg/kg; in data set [5], 0.5 mg/kg; in data set [7], 0.25 mg/kg. In data set [4], the “ED90 P. chabaudi ASP” value is reported as 13.5 mg/kg. Also, in data set [13], the “ED90 P. chabaudi AS, s.c.” value stood at 0.25 mg/kg. Besides, in [5], the “ED90 P. berghei ANKA” value was found to be 3.2 mg/kg. In addition, the ED90 in data set [7] turned out to be 0.88 mg/kg. Moreover, the “ED90 P. chabaudi AS, oral” value in data set [7] (oral administration, mice (Table 1)) is listed as 0.88 mg/kg. Further, the “Oral BA in rats” value in data set [17] was around 100%.

Consider `CCc1nc(N)nc(N)c1OCCCOc1ccccc1OCCCC(=O)O` [Compound P135, 2,4-diamino-6-ethyl-5-(3-(2-(3-carboxypropoxy)phenoxy)propoxy)pyrimidine], for which the Ki in [1] is 0.72 ± 0.03 nM; in data set [2], 3.47 ± 0.09 nM; in [6], 0.98 ± 0.003 nM; in [8] it was 2.54 ± 0.04 nM; in [10], 1.2 ± 0.05 nM. The MIC in [12] and in data set [14] was above 50 µM throughout. The IC50 in data set [3] is 1.6 ± 0.6 nM; in data set [11], above 10000 nM. In addition, the ED50 in data set [7] was 2 mg/kg. Also, the ED90 in data set [7] came to 5.2 mg/kg. In [9], the “Oral BA” value is reported as 7.0 % of dose. Further, the Vd in data set [9] (rat, plasma) is 1.6 L/kg. In addition, in data set [9] (rat, plasma, iv, i.v. dosing), the clearance was found to be 2.95 L/h/kg.

Take `CCc1nc(N)nc(N)c1OCCCOc1ccnc2ccc(Cl)cc12` [Compound P149, 2,4-diamino-6-ethyl-5-(3-(6-chloro-quinolin-4-yloxy)propoxy)pyrimidine]: the Ki in data set [1] stood at 1.05 ± 0.18 nM; in data set [2] it was 4.23 ± 1.06 nM; in data set [6] it was 2.37 ± 0.16 nM; in data set [8] it was 3.66 ± 0.48 nM; in [10] it was 3.4 ± 0.15 nM. Further, the MIC in data set [12] lay within 1 to 10 µM (≈ 0.374 to 3.74 µg/mL); in data set [14] it was 10 to 50 µM (≈ 3.74 to 18.7 µg/mL). Further, the IC50 in data set [3] turned out to be 3.2 ± 0.7 nM. In data set [7], this compound had an ED50 of 0.01 mg/kg. For the same compound, the ED90 in data set [7] came out at 0.02 mg/kg. Moreover, the “Oral BA” value in data set [9] is 10 % of dose. Further, in data set [9] (rat, plasma), the Vd was 51.2 L/kg. The clearance in [9] (rat, plasma, iv, i.v. dosing) came to 3.98 L/h/kg. The half-life in data set [9] (rat, plasma, iv, i.v. dosing, read-out: i.v. t1/2 (converted)) is 24.3 h.
